According to US20050026836A1, “Composition for the treatment of damaged tissue” (priority 1999, published 2005):

Tests used:
[1] = target: catalytic domain of human MMP-2 (Homo sapiens, UniProt P08253); assay: MMP-2 fluorogenic inhibition assay; assay type: biochemical; settings: read-out: Calculated Ki(nM) MMP-2
Experimental: All enzymes were pre-activated at 37° C. with aminophenylmercuric acetate (APMA) or trypsin before being made up to the final concentrations used in the assay.
(§1) For MMP-1, the assay buffer used was 50 mM Tris, 200 mM NaCl, 5 mM CaCl2, 20 μM ZnCl2, 0.05% (w/v) Brij 35, pH 7.5. […] For MMP-13, the assay buffer used was 50 mM Tris, pH 7.5, 200 mM NaCl, 5 mM CaCl2, […] and 0.02% (w/v) Brij 35.
(§2) MMP-2, MMP-3 and MMP-9 inhibition was assayed by incubating activated catalytic domain of human MMP-2, MMP-3 and MMP-9 at 1 nM in assay buffer with 5 μM substrate Mca-Arg-Pro-Lys-Pro-Tyr-Ala-Nva-Trp-Met-Lys(Dnp)-NH2, and six different concentrations of inhibitor. The incubation was performed at 37° C. for 60 minutes.
(§3) For MMP-2, the final assay concentrations of inhibitors used were 1000, 800, 600, 400, 200 and 100 nM. For MMP-3, the final assay concentrations of inhibitors used were 5, 4, 3, 2, 1 and 0.5 nM. For MMP-9 and MMP-14, the final assay concentrations of inhibitors used were 5, 4, 3, 2, 1 and 0.5 μM.
All assays were carried out in a black 96-well plate with a final volume of 100 μl in each well. Inhibitors were dissolved in dimethylsulphoxide (DMSO) to 1 mM. Solutions were then serially diluted in buffer to give the final concentrations shown. […]

[2] = target: T1, catalytic domain of human MMP-9 (Homo sapiens, UniProt P14780); assay: MMP-9 fluorogenic inhibition assay; assay type: biochemical; settings: read-out: Calculated Ki(nM) MMP-9
T1 sequence (P14780 with tags, fused parts or gaps DEL216-390 limits assumed): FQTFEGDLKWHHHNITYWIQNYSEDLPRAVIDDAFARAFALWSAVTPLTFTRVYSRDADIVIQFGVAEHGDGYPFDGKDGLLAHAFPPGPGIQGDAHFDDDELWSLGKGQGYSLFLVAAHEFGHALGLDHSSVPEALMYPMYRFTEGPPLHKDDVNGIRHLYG
Experimental: All enzymes were pre-activated at 37° C. with aminophenylmercuric acetate (APMA) or trypsin before being made up to the final concentrations used in the assay. MMP-1 (30 nM) was activated with 0.93 mM APMA for 20 minutes, MMP-2 (30 nM) was activated with 1.32 mM APMA for 1 hour, MMP-3 (1010 nM) was activated with 1.81 mM APMA for 3 hours or heat activated at 55° C. for three hours, MMP-9 (100 nM) was activated with 2 mM APMA for 2 hours, human MMP-13 (100 nM) was activated with 2 mM APMA for 2 hours, and MMP-14 (900 nM) was activated with 0.9 ng/ml trypsin for 25 minutes, followed by the addition of 4.5 ng/ml trypsin inhibitor.
as §1, with “35. For MMP-14, the assay buffer used was 50 mM Tris, 100 mM NaCl, 10 mM CaCl2, 0.25% (w/v) Brij 35, pH 7.5.” for “35.”
as §2
as §3, with “The final assay concentrations of inhibitors used in the MMP-1 assays to determine Ki were 50, 40, 30, 20, 10 and 5 μM. For MMP-2,” for “For MMP-2,”
All assays were carried out in a black 96-well plate with a final volume of 100 μl in each well. […] For MMP-2, MMP-3, MMP-9 and MMP-14, fluorescence was read every 2 minutes at […] and 393 nm γem for 1 hour using a Fluorostar fluorimeter (BMG) with BIOLISE software. For MMP-1 assays, the filters used were 355 nm γex and 440 nm γem; fluorescence was read every 2 minutes for 1 hour. […]

Chain of catalytic domain of human MMP-2 (P08253 with tags, fused parts or gaps DEL222-396 limits assumed): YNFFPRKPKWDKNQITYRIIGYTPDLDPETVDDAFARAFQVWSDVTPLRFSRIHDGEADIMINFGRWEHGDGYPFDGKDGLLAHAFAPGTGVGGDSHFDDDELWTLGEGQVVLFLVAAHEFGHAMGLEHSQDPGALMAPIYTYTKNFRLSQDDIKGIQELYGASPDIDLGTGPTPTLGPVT

Ki [1]: 35200 nM
Ki [2]: 52400 nM
Structure (SMILES): COC[C@@H](NC(=O)[C@@H](NC(=O)[C@H](CCCc1ccc(-c2cccc(OC)c2)c(C)c1)CC(=O)O)C(C)(C)C)c1ccccc1 [compound 9454, (3R)-3-({[(1S)-2,2-Dimethyl-1-({[(1S)-2-methoxy-1-phenylethyl]amino}carbonyl)propyl]amino}carbonyl)-6-(3′-methoxy-2-methylbiphen-4-yl)hexanoic acid]
